Results on 20 compounds are retold here after patent US20240287076A1, “COMPOUNDS FOR TARGETING DEGRADATION OF BRUTON'S TYROSINE KINASE” (BIOGEN MA INC., priority 2021, published 2024).

For this assay, the target named is T1, BTK (Homo sapiens, UniProt Q06187).
T1 construct: The GM01501.3 cell line endogenously expresses BTK with a HiBiT fusion tag via CRISPR knock-in at its C-terminal region; endogenous in cells; host or cells: GM01501.3 (GM01501 cells engineered by CRISPR knock-in of HiBiT at the BTK locus)
T1 sequence (Q06187 whole entry, the tested form may be a part): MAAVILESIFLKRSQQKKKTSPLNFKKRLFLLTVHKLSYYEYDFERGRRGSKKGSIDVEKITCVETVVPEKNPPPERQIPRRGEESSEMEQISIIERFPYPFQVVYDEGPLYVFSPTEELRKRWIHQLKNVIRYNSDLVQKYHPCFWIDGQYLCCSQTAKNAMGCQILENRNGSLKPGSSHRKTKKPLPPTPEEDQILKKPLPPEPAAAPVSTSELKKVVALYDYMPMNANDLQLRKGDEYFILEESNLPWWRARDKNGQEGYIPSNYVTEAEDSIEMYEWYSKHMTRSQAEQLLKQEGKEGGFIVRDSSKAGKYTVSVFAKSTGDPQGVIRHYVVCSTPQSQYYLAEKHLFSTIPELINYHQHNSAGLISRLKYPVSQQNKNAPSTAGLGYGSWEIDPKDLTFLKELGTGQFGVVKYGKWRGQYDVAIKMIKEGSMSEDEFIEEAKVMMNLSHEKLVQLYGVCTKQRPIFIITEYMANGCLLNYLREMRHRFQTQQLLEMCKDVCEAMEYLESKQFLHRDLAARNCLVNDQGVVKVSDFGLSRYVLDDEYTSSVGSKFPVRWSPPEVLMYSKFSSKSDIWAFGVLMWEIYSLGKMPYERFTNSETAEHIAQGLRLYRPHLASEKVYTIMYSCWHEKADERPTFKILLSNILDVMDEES
Briefly: BTK degradation assay using the HiBiT Method (Nano-Glo HiBiT Lytic Assay, GM01501.3 cells). The format is cell-based. The conditions noted are these: HiBiT Degradation on GM01501.3 BTK @ 6 hours. The gist of the method:
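Degradation read-out: HiBiT luminescence after lytic reagent addition, giving DC50. Compounds dosed from 10 μM in 11 half-log steps (duplicate) onto GM01501.3 cells, whose endogenous BTK carries a C-terminal HiBiT knock-in tag; 6 h exposure, 37 °C, 5% CO2.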
`Cc1cc(-c2ncnn3cc(N4CCN(C(=O)C5(CNC(=O)c6ccc(OC7CCC(=O)NC7=O)cc6)CC5)CC4)cc23)ccc1CNC(=O)c1noc(C(C)(C)C)n1` (centres unmarked) [Example 174, 5-(tert-butyl)-N-(4-(6-(4-(1-((4-((2,6-dioxopiperidin-3-yl)oxy)benzamido)methyl)cyclopropane-1-carbonyl)piperazin-1-yl)pyrrolo[2,1-f][1,2,4]triazin-4-yl)-2-methylbenzyl)-1,2,4-oxadiazole-3-carboxamide] yielded a half-maximal degradation concentration (DC50) of less than 100 nM.
The result for `Cc1cc(-c2ncnn3cc(-c4ccc(OCCCCN5CCC(c6ccc(NC7CCC(=O)NC7=O)cc6)CC5)cc4)cc23)ccc1CNC(=O)c1nc(C(C)(C)C)ns1` (centres unmarked) [Example 112, 3-tert-butyl-N-[[4-[6-[4-[4-[4-[4-[(2,6-dioxo-3-piperidyl)amino]phenyl]-1-piperidyl]butoxy]phenyl]pyrrolo[2,1-f][1,2,4]triazin-4-yl]-2-methyl-phenyl]methyl]-1,2,4-thiadiazole-5-carboxamide] reads less than 100 nM; that for `Cc1cc(-c2ncnn3cc(-c4ccc(CN5CCC(c6ccc(NC7CCC(=O)NC7=O)cc6)CC5)cc4)cc23)ccc1CNC(=O)c1ncc(C(C)C)cc1F` (centres unmarked) [Example 76, N-[[4-[6-[4-[[4-[4-[(2,6-dioxo-3-piperidyl)amino]phenyl]-1-piperidyl]methyl]phenyl]pyrrolo[2,1-f][1,2,4]triazin-4-yl]-2-methyl-phenyl]methyl]-3-fluoro-5-isopropyl-pyridine-2-carboxamide], less than 100 nM; that for `Cc1cc(-c2ncnn3cc(-c4ccc(CN5CCC(c6ccc(N[C@H]7CCC(=O)NC7=O)cc6F)CC5)cc4)cc23)ccc1CNC(=O)c1noc(C(C)(C)C)n1` [Example 25, (S)-5-(tert-butyl)-N-(4-(6-(4-((4-(4-((2,6-dioxopiperidin-3-yl)amino)-2-fluorophenyl)piperidin-1-yl)methyl)phenyl)pyrrolo[2,1-f][1,2,4]triazin-4-yl)-2-methylbenzyl)-1,2,4-oxadiazole-3-carboxamide], less than 100 nM.
To `Cc1cc(-c2ncnn3cc(OCCCN4CCC[C@@H](c5ccc6c(N7CCC(=O)NC7=O)nn(C)c6c5)C4)cc23)ccc1CNC(=O)c1noc(C(C)(C)C)n1` (single isomer, unassigned) [Example 292] belongs less than 100 nM; to `Cc1cc(-c2ncnn3cc(N4CCN(C(=O)CCCC5CN(C(=O)c6ccc(OC7CCC(=O)NC7=O)cc6)C5)CC4)cc23)ccc1CNC(=O)c1noc(C(C)(C)C)n1` (centres unmarked) [Example 184, 5-(tert-butyl)-N-(4-(6-(4-(4-(1-(4-((2,6-dioxopiperidin-3-yl)oxy)benzoyl)azetidin-3-yl)butanoyl)piperazin-1-yl)pyrrolo[2,1-f][1,2,4]triazin-4-yl)-2-methylbenzyl)-1,2,4-oxadiazole-3-carboxamide], less than 100 nM; to `Cc1cc(-c2ncnn3cc(-c4ccc(CN5CCC(c6ccc(NC7CCC(=O)NC7=O)cc6)CC5)cc4)cc23)ccc1CNC(=O)c1ccc(C(F)(F)F)cc1` (centres unmarked) [Example 73, N-[[4-[6-[4-[[4-[4-[(2,6-dioxo-3-piperidyl)amino]phenyl]-1-piperidyl]methyl]phenyl]pyrrolo[2,1-f][1,2,4]triazin-4-yl]-2-methyl-phenyl]methyl]-4-(trifluoromethyl)benzamide], less than 100 nM.
To `Cc1cc(-c2ncnn3cc(N4CCN(C(=O)CCCCNC(=O)c5ccc(OC6CCC(=O)NC6=O)cc5)CC4)cc23)ccc1CNC(=O)c1noc(C(C)(C)C)n1` (centres unmarked) [Example 173, 5-(tert-butyl)-N-(4-(6-(4-(5-(4-((2,6-dioxopiperidin-3-yl)oxy)benzamido)pentanoyl)piperazin-1-yl)pyrrolo[2,1-f][1,2,4]triazin-4-yl)-2-methylbenzyl)-1,2,4-oxadiazole-3-carboxamide] belongs 100 to 500 nM; to `CC(C)(C)c1nc(C(=O)NCc2ccc(-c3ncnn4cc(-c5ccc(CN6CCC(c7ccc(NC8CCC(=O)NC8=O)cn7)CC6)cc5)cc34)cc2F)no1` (centres unmarked) [Example 45, 5-tert-butyl-N-[[4-[6-[4-[[4-[5-[(2,6-dioxo-3-piperidyl)amino]-2-pyridyl]-1-piperidyl]methyl]phenyl]pyrrolo[2,1-f][1,2,4]triazin-4-yl]-2-fluoro-phenyl]methyl]-1,2,4-oxadiazole-3-carboxamide], less than 100 nM; to `Cc1cc(-c2ncnn3cc(N4CCN(C(=O)CC5CC(NC(=O)c6ccc(OC7CCC(=O)NC7=O)cc6)C5)CC4)cc23)ccc1CNC(=O)c1noc(C(C)(C)C)n1` (centres unmarked) [Example 175, 5-(tert-butyl)-N-(4-(6-(4-(2-(3-(4-((2,6-dioxopiperidin-3-yl)oxy)benzamido)cyclobutyl)acetyl)piperazin-1-yl)pyrrolo[2,1-f][1,2,4]triazin-4-yl)-2-methylbenzyl)-1,2,4-oxadiazole-3-], 100 to 500 nM.
`Cc1cc(-c2ncnn3cc(CCN4CCC(c5ccc(C6CCC(=O)NC6=O)cc5)CC4)cc23)ccc1CNC(=O)c1noc(C(C)(C)C)n1` (centres unmarked) [Example 116, 5-tert-butyl-N-[[4-[6-[2-[4-[4-(2,6-dioxo-3-piperidyl)phenyl]-1-piperidyl]ethyl]pyrrolo[2,1-f][1,2,4]triazin-4-yl]-2-methyl-phenyl]methyl]-1,2,4-oxadiazole-3-carboxamide]: the DC50 is less than 100 nM.
The result for `Cc1cc(-c2ncnn3cc(-c4ccc(CN5CCC(c6ccc(NC7CCC(=O)NC7=O)cc6)CC5)c(F)c4)cc23)ccc1CNC(=O)c1noc(C(C)(C)C)n1` (centres unmarked) [Example 23, 5-tert-butyl-N-[[4-[6-[4-[[4-[4-[(2,6-dioxo-3-piperidyl)amino]phenyl]-1-piperidyl]methyl]-3-fluoro-phenyl]pyrrolo[2,1-f][1,2,4]triazin-4-yl]-2-methyl-phenyl]methyl]-1,2,4-oxadiazole-3-carboxamide] reads less than 100 nM; that for `Cc1cc(-c2ncnn3cc(CCN4CCC(c5cc6c(cc5F)c(N5CCC(=O)NC5=O)nn6C)CC4)cc23)ccc1CNC(=O)c1noc(C(C)(C)C)n1` [Example 256, 5-(tert-butyl)-N-(4-(6-(2-(4-(3-(2,4-dioxotetrahydropyrimidin-1(2H)-yl)-5-fluoro-1-methyl-1H-indazol-6-yl)piperidin-1-yl)ethyl)pyrrolo[2,1-f][1,2,4]triazin-4-yl)-2-methylbenzyl)-1,2,4-oxadiazole-3-carboxamide], less than 100 nM; that for `Cc1cc(-c2ncnn3cc(-c4ccc5c(c4)CN(CCc4ccc(NC6CCC(=O)NC6=O)cc4)C5)cc23)ccc1CNC(=O)c1noc(C(C)(C)C)n1` (centres unmarked) [Example 55, 5-tert-butyl-N-[[4-[6-[2-[2-[4-[(2,6-dioxo-3-piperidyl)amino]phenyl]ethyl]isoindolin-5-yl]pyrrolo[2,1-f][1,2,4]triazin-4-yl]-2-methyl-phenyl]methyl]-1,2,4-oxadiazole-3-carboxamide], less than 100 nM.
The result for `CC(C)(C)c1nc(C(=O)NCc2ccc(-c3ncnn4cc(C#CC(F)(F)CN5CCC(c6ccc(C7CCC(=O)NC7=O)cc6)CC5)cc34)cc2F)no1` (centres unmarked) [Example 225, 5-tert-butyl-N-[[4-[6-[4-[4-[4-(2,6-dioxo-3-piperidyl)phenyl]-1-piperidyl]-3,3-difluoro-but-1-ynyl]pyrrolo[2,1-f][1,2,4]triazin-4-yl]-2-fluoro-phenyl]methyl]-1,2,4-oxadiazole-3-carboxamide] reads greater than 1000 nM; that for `Cc1cc(-c2ncnn3cc(-c4ccc(CN5CCC(c6ccc(NC7CCC(=O)NC7=O)cc6)CC5)cc4)cc23)ccc1CNC(=O)c1cnc(C(C)(C)C)cn1` (centres unmarked) [Example 82, 5-tert-butyl-N-[[4-[6-[4-[[4-[4-[(2,6-dioxo-3-piperidyl)amino]phenyl]-1-piperidyl]methyl]phenyl]pyrrolo[2,1-f][1,2,4]triazin-4-yl]-2-methyl-phenyl]methyl]pyrazine-2-carboxamide], less than 100 nM.
To `CC(C)(C)c1nc(C(=O)NCc2ccc(-c3ncnn4cc(CCN5CCC(n6ccc(NC7CCC(=O)NC7=O)n6)CC5)cc34)cc2F)no1` (centres unmarked) [Example 123, 5-tert-butyl-N-[[4-[6-[2-[4-[3-[(2,6-dioxo-3-piperidyl)amino]pyrazol-1-yl]-1-piperidyl]ethyl]pyrrolo[2,1-f][1,2,4]triazin-4-yl]-2-fluoro-phenyl]methyl]-1,2,4-oxadiazole-3-carboxamide] belongs 100 to 500 nM; to `CC(C)(C)c1nc(C(=O)NCc2ccc(-c3ncnn4cc(-c5ccc(CN6CC[C@H](c7ccc(NC8CCC(=O)NC8=O)cc7)CC67CC7)cc5)cc34)cc2F)no1` (stereo partly drawn) [Example 39, 5-tert-butyl-N-[[4-[6-[4-[[(7S)-7-[4-[(2,6-dioxo-3-piperidyl)amino]phenyl]-4-azaspiro[2.5]octan-4-yl]methyl]phenyl]pyrrolo[2,1-f][1,2,4]triazin-4-yl]-2-fluoro-phenyl]methyl]-1,2,4-oxadiazole-3-carboxamide], 100 to 500 nM; to `Cc1cc(-c2ncnn3cc(-c4ccc(CN5CCC(c6ccc(NC7CCC(=O)NC7=O)cc6)CC5(C)C)cc4)cc23)ccc1CNC(=O)c1noc(C(C)(C)C)n1` (centres unmarked) [Example 5, 5-tert-butyl-N-[[4-[6-[4-[[4-[4-[(2,6-dioxo-3-piperidyl)amino]phenyl]-2,2-dimethyl-1-piperidyl]methyl]phenyl]pyrrolo[2,1-f][1,2,4]triazin-4-yl]-2-methyl-phenyl]methyl]-1,2,4-oxadiazole-3-carboxamide], less than 100 nM.
The compound `Cc1cc(-c2ncnn3cc(CCN4CC[C@H](c5ccc6c(N7CCC(=O)NC7=O)nn(C)c6c5)C4)cc23)ccc1CNC(=O)c1noc(C(C)(C)C)n1` (single isomer, unassigned) [Example 265] displayed a DC50 of less than 100 nM.
